This note sets out measurements from EP4467137A1, “TREATMENT OF FRONTOTEMPORAL DEMENTIA OR FRONTOTEMPORAL LOBAR DEMENTIA” (Universidad Autónoma de Madrid, priority 2023, dated 2024).

One assay concerns hyperphosphorylated tau. As to the kind of experiment: In vivo hTauP301L model: western blot of sarkosyl soluble and insoluble hyperphosphorylated tau. On the set-up: species or system mouse. The settings on record: adult mice; 50 mg/kg/day oral, 35 days; sarkosyl insoluble fraction. As to the method: In vivo hTau301L model was induced by stereotaxic injection of AAV-hTauP301L (AAV-hTau) particles as described in [Luengo, Enrique et al. "Implication of type 4 NADPH oxidase (NOX4) in tauopathy." Redox biology vol. 49 (2022): 102210. doi:10.1016/j.redox.2021.102210 ]. Control animals were injected with AAV-GFP. Evaluation of hyperphosphorylated tau in sarkosyl soluble and insoluble fractions; microgliosis; AT8 and AT180 by immunofluorescence; and cognitive test were performed as described previously [Luengo, Enrique et al. "Implication of type 4 NADPH oxidase (NOX4) in tauopathy." Redox biology vol. 49 (2022): 102210. doi:10.1016/j.redox.2021.102210 ].
Oral administration of Compound 1 at different dosages (20 mg·kg^-1 and 50 mg·kg^-1) was administered embedded in gelatine. The compound was given in a mixture of 10 % gelatine from porcine skin and 10 % sucralose in water, heated in a microwave oven. Before Compound 1 addition, gelatine mixture was left at RT. Afterwards, the compound was added, evenly mixed and plated 1 mL·well^-1 in a P24 plate. […]
Example 2.5. […] After 35 days treatment, hyperphosphorylated tau levels were evaluated by immunofluorescence and by WB in soluble and insoluble in sarkosyl fractions. […]
After 35 days of treatment, monomeric and oligomeric forms of tau, soluble and insoluble in sarkosyl, were analysed by western blot. […]
A general note: A western blot detects proteins with antibodies after separation by electrophoresis.

Assay [1] relates to primary rat glial cultures. As to the kind of experiment: Anti-neuroinflammatory screening in LPS-treated primary glial cultures (Griess, normalized by MTT). The assay is classed as cell-based. The settings on record: % reduction of nitrites, LPS alone = 100 % inflammation, read-out: Anti-neuro inflammatory effect at 3 µM (%). As to the method:
Screening for anti-inflammatory properties in primary rat glial cultures was performed according to the protocol described previously [Gameiro, Isabel et al. "Discovery of the first dual GSK3β inhibitor/Nrf2 inducer. A new multitarget therapeutic strategy for Alzheimer's disease." Scientific reports vol. 7 45701. 31 Mar. 2017, doi:10.1038/srep45701]. All compounds were evaluated at the single concentration of 3 µM. Neuroinflammation was quantified as the value of released […], measured by the Griess method, normalized by the number of viable cells measured by the MTT method [Mosmann, T. "Rapid colorimetric assay for cellular growth and survival: application to proliferation and cytotoxicity assays." Journal of immunological methods vol. 65, 1-2 (1983): 55-63. doi:10.1016/0022-1759(83)90303-4]. LPS alone was considered 100 % inflammation.
Based on the results obtained (Table 2), Compound 1 was selected for further in vitro and in vivo studies as it was endowed with the best anti-neuroinflammatory activity. Table 2: Comparative in vitro results. Cell viability/toxicity: effect of the compound per se on cell viability of […] cells measured with the MTT method. Anti-neuroinflammatory effect: % Reduction of nitrites in primary rat glial cultures. PAMPA-BBB: In vitro blood-brain barrier permeation assay, permeation rate Pe (10-6 cm.s-1). NRF2, CD (µM): Concentration of compound that doubles de activation of NRF2. ORAC: Oxygen radical absorbance capacity. LOX-5: lipoxygenase-5.
Background: Griess reagent forms a coloured azo dye with nitrite.

Each structure is given as a SMILES string.

For `COc1ccc2c(c1)CC(c1c[nH]c3ccc(OC)cc13)N2` (stereo not drawn) [Compound 1, 5-Methoxy-3-(5-methoxyindolin-2-yl)-1H-indole], in the assay on hyperphosphorylated tau, the “insoluble monomers of AT180” value is “significant reduction” and the “insoluble oligomers of AT180” value is given as “tendency to reduce”. For the same compound, in assay [1], the inhibition at 3 µM was 100 ± 6.6%.
